Consider twelve molecules from US8410056B2, “Pro-oxidant anti-cancer compounds” (priority 2006, dated 2013).

Series [1] deals with T1, complex II/SDH-dependent activity in NeuTL cells (Mus musculus, UniProt Q8K2B3+Q9CQA3+Q9CXV1+Q9CZB0).
T1 construct: For specifically measuring complex II activity in whole cells; endogenous in cells; host or cells: NeuTL murine breast cancer cells
Nature of the series: MTT reduction assay of complex II/SDH activity in whole cells. The class given is cell-based, murine. Conditions: for inhibition of MTT reduction after MitoQ pre-incubation: cells pre-incubated 1 h with MitoQ; for enzymatic reduction of MTT: within a few hours of treatment. How it is done:
MTT assay. MTT solutions were prepared immediately before use by dissolving 2.5 mg/ml 3-(4,5-dimethyl[…] (MTT) (Sigma) in PBS alone or phenol red-free RPMI medium containing 20 mM succinic acid, pH 7.4. Stock solutions of 3-nitropropionic acid (3NPA) in ethanol, thenoyltrifluoroacetone (TTFA) in DMSO, 3-BP in PBS, α-TOS in DMSO, and MitoQ (Alleva et al, 2003, James et al, 2005) in ethanol were prepared. The drugs were tested on NeuTL cells cultured in exponential growth phase in 96-well microtitre plates using 4-8 replicate wells per dilution assayed. To assess the ability of MitoQ to restore MTT reduction, cells were pre-incubated for 60 min with 2 or 5 μM MitoQ. Final concentrations of ethanol or DMSO in cultures were ≦0.1%. Treated and control cells were allowed to reduce MTT to blue formazan crystals for 2 or 4 h at 37° C. and 5% CO2. After incubation, culture supernatants were removed except for 30 μl, before the formazan crystals were solubilized by addition of 150 μl DMSO, and absorbance values were measured at 570 nm using a Fluorostar Optima plate reader.
To this end, the present inventors investigated whether α-TOS interferes with UbQ binding in complex II. For specifically measuring complex II activity in whole cells, a short-term (1-2 h) assay was used based on the reduction of the tetrazolium salt, MTT (Maehara et al, 1988). […] For this, oxidative respiration of murine NeuTL breast cancer cells was sustained on high levels of succinate (20 mM), thereby promoting the SDH activity of complex II (Maehara et al, 1988). The cells were then assayed within 1-2 h for their ability to enzymatically reduce MTT, which under conditions of high succinate becomes a specific indicator of complex II/SDH-dependent activity (Maehara et al, 1988, Berridge and Tan, 1993).

In another series the test system is MCF-7 cells. Nature of the series: Apoptosis, annexin V-FITC method. The class given is cell-based, human. The conditions noted are these: MCF-7 (erbB2-low); 24 h; normoxia or hypoxia. How it is done: (§1) Cell culture and treatment. […] Cells were cultured in DMEM with 10% FCS, 100 U/ml penicillin and 100 μg/ml streptomycin at 37° C. in a humidified atmosphere of 5% CO2. Mitochondrial complex I-deficient (Breen and Scheffler 1979; DeFrancesco et al 1976; Scheffler et al 2004) and complex II-deficient cells (Albayrak et al 2003; Oostveen et al 1995) were grown in DMEM with 10% FCS, […] glucose and non-essential amino acids.
(§2) At approximately 70% confluency, cells were treated with up to 50 μM α-TOS (Sigma), up to 100 μM 3-BP (Aldrich) or 30 ng/ml of human recombinant tumor necrosis factor-related apoptosis—inducing ligand (TRAIL) (Weber et al, 2002) under normoxic or hypoxic conditions. For hypoxia, cells overlaid with nitrogen-purged medium were placed in a hypoxic chamber pre-flushed extensively with nitrogen. The hypoxic chamber with cells was then placed in the incubator as required. α-TOS was dissolved in ethanol and used such that the final ethanol concentration in cell culture medium was <0.1% (v/v). Stock solutions of 3-BP were prepared in PBS prior to use.
Apoptosis assessment. Apoptosis was quantified using the annexin V-FITC method, which detects phosphatidyl serine externalized in the early phases of apoptosis (Boersma et al, 1996). Briefly, cells were plated at 10^5 per well in 24-well plates and, after an overnight recuperation, treated with α-TOS or 3-BP alone or in combination. Floating and attached cells were harvested, washed with PBS, resuspended in 0.2 ml binding buffer (10 mM Hepes, 140 mM NaCl, 5 mM CaCl2, pH 7.4), incubated for 30 min at 4° C. with 2 μl annexin V-FITC (PharMingen), supplemented with 200 μl of 50 μg/ml propidium iodide (PI; Sigma), and analyzed by flow cytometry (FACScalibur, Becton Dickinson) using channel 1 for annexin V-FITC binding and channel 2 for PI staining. Cell death was quantified as the percentage of cells with increased annexin V binding and PI staining. […]

In series [2] the test system is erbB2 highly positive breast carcinomas. The conditions noted are these: α-TOS 10 μmoles i.p. every 3 d; 3-BP 0.2 μmoles daily intratumorally.
Description: (A) Nude mice were inoculated with MCF-7 cells and, after tumors became established, the animals were treated once every 3 d with 10 μmoles per mouse of α-TOS dissolved in DMSO or with DMSO alone, by intraperitoneal (i.p.) injection. Tumor size was measured using calipers and was correlated to the size of the carcinomas at the onset of the therapy. Four animals were used in each group. The results shown are mean values±S.E. The symbol ‘*’ denotes significant difference (p<0.05). (B) Female FVB/N erbB2 mice with palpable tumors (see General Materials and Methods) received either 10 μmoles α-TOS solubilized in corn oil/4% ethanol (n=11) or the corn oil/4% ethanol alone (control, n=9) by i.p. injection once every 3 d, or 0.2 μmoles 3-BP (n=8) in PBS at the tumor site every day. Tumor size was recorded using calipers. Two independent experiments were conducted. Results are represented as mean values±S.E. The symbol ‘*’ denotes significant difference (p<0.05) in the analysis of variance between the 3-BP and α-TOS curves.
Mouse tumor experiments. Nude mice were inoculated subcutaneously with MCF-7 cells (2×10^6 cells/mouse). After tumors developed (diameter of 3-7 mm), mice were injected intraperitoneally with 10 μmoles α-TOS in DMSO every 3 days. Control mice were injected with an equal volume (100 μl) of DMSO only. Tumor size was estimated by measuring with digital calipers. A colony of transgenic FVB/N2O2 rat c-neu mice carrying the rat HER-2/neu protooncogene driven by the MMTV promoter on the H-2^q FVB/N background (Guy et al, 1992) was established at the Griffith University Animal Facility and maintained under strict inbreeding conditions. The presence of the transgene was routinely confirmed by PCR. Approximately 70% of the female mice developed spontaneous mammary carcinomas with a mean latency time of 10 months. Female transgenic FVB/N2O2 rat c-neu mice bearing progressively growing tumors with a mean diameter of 10±5 mm were randomly assigned to control or treatment groups. Tumor size was measured using digital calipers. […]
Series [3] concerns MDA-MB-453, MCF-7 and NeuTL breast cancer cells. Nature of the series: ATP bioluminescence assay. The class given is cell-based, human; murine. Conditions: 6 or 24 h; normoxia or hypoxia. How it is done: as §1, §2
ATP measurement. MDA-MB-453 and NeuTL cells were seeded at 2×10^5 per ml and MCF-7 cells at 1.2×10^5 per ml into 96-well tissue culture microtitre plates and allowed to recover overnight before use. Cells were incubated for 6 or 24 h with α-TOS or 3-BP under normoxia or hypoxia as described above. ATP levels were then measured using an ATP bioluminescence assay kit HSII (Roche Applied Science) according to the manufacturer's instructions. Briefly, control or treated cells were transferred into black microtitre plates after incubation for 5 min at room temperature with the cell lysis reagent. Luciferase reagent was added and the signal detected immediately using a Fluorostar Optima plate reader (BMG Labtech). Triplicate wells were read for each condition and data evaluated using a standard calibration curve prepared with known concentrations of ATP.

The test system of the next series is MDA-MB-453 cells. Nature of the series: Apoptosis, annexin V-FITC method. The class given is cell-based, human. The conditions noted are these: for apoptosis: MDA-MB-453 (erbB2-high), normoxia or hypoxia; for apoptosis after Akt1 knock-down: pre-treated with 60 pM Akt1 siRNA for 24 h, then drug 24 h. As for the experimental part: as §1, §2
Apoptosis assessment. Apoptosis was quantified using the annexin V-FITC method, which detects phosphatidyl serine externalized in the early phases of apoptosis (Boersma et al, 1996). Briefly, cells were plated at 10^5 per well in 24-well plates and, after an overnight recuperation, treated with α-TOS or 3-BP alone or in combination. Floating and attached cells were harvested, washed with PBS, resuspended in 0.2 ml binding buffer (10 mM Hepes, 140 mM NaCl, 5 mM CaCl2, pH 7.4), incubated for 30 min at 4° C. with 2 μl annexin V-FITC (PharMingen), supplemented with 200 μl of 50 μg/ml propidium iodide (PI; Sigma), and analyzed by flow cytometry (FACScalibur, Becton Dickinson) using channel 1 for annexin V-FITC binding and channel 2 for PI staining. Cell death was quantified as the percentage of cells with increased annexin V binding and PI staining.
RNA interference (RNAi). Short-interfering RNA (siRNA) oligonucleotides with 3′-dTdT overhangs specific for Akt1 were synthesized by Qiagen. The sequences are as follows: target sequence: […] (SEQ ID NO 2); siRNA duplex sequences: sense—r([…] )dTdT (SEQ ID NO 3), antisense—r([…] )dTdT (SEQ ID NO 4). The transfection of cultured MDA-MB-453 cells with siRNA was performed using OligofectAmine (Invitrogen) and OptiMEM according to the manufacturer's instructions. Briefly, cells were allowed to reach 50% confluency and supplemented with […] siRNA pre-incubated with OligofectAmine and overlayed with OptiMEM. Cells were washed 24 h later with PBS, overlayed with complete DMEM and treated as required after an additional 24 h.
Transfection of MDA-MB-453 cells with siRNAs was performed using OligofectAmine and OptiMEM. Briefly, cells were allowed to reach ˜50% confluency and supplemented with 60 pmol/l siRNA pre-incubated with OligofectAmine and overlayed with OptiMEM. Cells were washed 24 h later with PBS, overlaid with complete DMEM, cultured for an additional 24 h, 48 h and transgene expression confirmed using Western blotting before they were used for further experiments.

The test system of the next series is B16-F1/nude mice. Conditions: Kogure et al, 2005; cited from earlier work.
Another series concerns Jurkat. Conditions: cited from earlier work.
The next series concerns A549. Conditions: cited from earlier work.
The next series concerns C1271. Conditions: Kogure et al, 2004; cited from earlier work.
Series [4] deals with retinoic acid receptors (RARs). Conditions: reporter constructs; cited from earlier work.
The subject of a further series is NB4, HT93. Conditions: cited from earlier work.
The next series concerns all cells. Conditions: Zhang et al, 2001b; cited from earlier work.
Series [5] concerns breast carcinomas with high erbB2 expression. Nature of the series: Breast carcinomas in FVB/N2O2 c-neu mice, ultrasound imaging. Format: in vivo. As for the experimental part:
FIG. 11. Peptide conjugate LTVSPWY-α-TOS (SEQ ID NO 1) suppresses breast carcinomas. FVB/N2O2 c-neu female mice of >7 months of age with breast carcinomas, as detected by ultrasound imaging (USI), were treated by intraperitoneal injection of the vehicle or 5 μmol per mouse per dose of LTVSPWY-α-TOS (SEQ ID NO 1) solubilised in corn oil/ethanol (100:5, v/v) at times shown. The tumours were visualised and quantified using USI and are expressed relative to their volume at the onset of the treatment (A). […] The volume was […] at the onset of the experiment for both tumors. Data shown are mean values±SD (n=4-6) and the USI images are representative of tumours from each group.
This example describes the targeting of an α-TOS pro-drug to cancer cells over-expressing the receptor tyrosine kinase erbB2. An adduct of α-TOS was linked to the heptapeptide LTVSPWY (SEQ ID NO 1), which peptide is known for targeting cancer cells over-expressing erbB2. […] In fact, there was an unexpected 90% relative reduction in size of treated tumors compared to the untreated control.

Entries after “also recorded” stand apart in the source; their conditions may differ. Ends that are not written are not given here.

T1 sequence (Q8K2B3 43-664): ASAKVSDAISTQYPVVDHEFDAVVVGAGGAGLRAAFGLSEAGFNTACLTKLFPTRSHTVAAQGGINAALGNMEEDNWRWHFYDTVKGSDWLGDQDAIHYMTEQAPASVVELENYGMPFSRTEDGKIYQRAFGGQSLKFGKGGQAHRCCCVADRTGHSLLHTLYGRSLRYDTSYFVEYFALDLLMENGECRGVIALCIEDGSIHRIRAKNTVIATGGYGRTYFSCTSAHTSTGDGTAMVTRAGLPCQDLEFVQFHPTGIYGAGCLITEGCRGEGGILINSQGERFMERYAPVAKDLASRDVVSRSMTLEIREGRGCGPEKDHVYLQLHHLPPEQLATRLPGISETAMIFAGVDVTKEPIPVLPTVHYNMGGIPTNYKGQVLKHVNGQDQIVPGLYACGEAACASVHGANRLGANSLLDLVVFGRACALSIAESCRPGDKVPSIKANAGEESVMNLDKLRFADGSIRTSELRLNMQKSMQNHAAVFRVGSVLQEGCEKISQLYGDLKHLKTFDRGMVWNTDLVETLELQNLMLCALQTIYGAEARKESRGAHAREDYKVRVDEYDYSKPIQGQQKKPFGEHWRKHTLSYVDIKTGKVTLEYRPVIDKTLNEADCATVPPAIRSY
T1 sequence (Q9CQA3 31-282): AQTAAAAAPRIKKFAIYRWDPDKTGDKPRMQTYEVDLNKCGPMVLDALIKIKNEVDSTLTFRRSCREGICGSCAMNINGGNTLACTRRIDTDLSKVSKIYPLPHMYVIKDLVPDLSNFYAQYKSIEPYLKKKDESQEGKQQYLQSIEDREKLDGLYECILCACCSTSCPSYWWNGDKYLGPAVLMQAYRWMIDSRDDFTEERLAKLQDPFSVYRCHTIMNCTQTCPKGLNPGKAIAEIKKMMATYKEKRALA
T1 sequence (Q9CZB0 30-169): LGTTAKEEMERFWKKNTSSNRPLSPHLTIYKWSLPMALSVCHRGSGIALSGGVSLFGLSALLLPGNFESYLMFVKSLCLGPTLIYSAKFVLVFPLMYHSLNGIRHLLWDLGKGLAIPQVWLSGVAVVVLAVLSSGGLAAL
T1 sequence (Q9CXV1 57-159): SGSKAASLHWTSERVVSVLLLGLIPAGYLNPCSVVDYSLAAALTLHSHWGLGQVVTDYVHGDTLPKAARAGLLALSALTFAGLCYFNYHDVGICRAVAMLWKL

Regarding `O=C(O)C(=O)CBr` [Compound 3-BP, 3-bromopyruvate, reference compound], the “complex II-mediated MTT reduction” value in series [1] (absence of added succinate, 4 h) is reported as “potent inhibitors of the complex II-mediated MTT reduction”. For the same molecule, in series [1], the “inhibition of MTT reduction after MitoQ pre-incubation” value is on record as “not significantly different” and the “enzymatic reduction of MTT” value is “significant decreases occurring in the levels of MTT reduction”. The apoptosis result with MCF-7 cells is given as “more sensitive to killing by 3-BP under hypoxia than normoxia”. In series [2], the “tumor growth” value is given as “either growth arrest or partial regression”. In addition, the “cellular ATP levels” value in [3] was “more potent inhibitors than α-TOS”. For the same molecule, in the series with MDA-MB-453 cells, the apoptosis result is listed as “strikingly resistant to killing by 3-BP, even with concentrations as high as 100 μM” and the “apoptosis after Akt1 knock-down” value is reported as “particularly marked increase in cytotoxic responsiveness; also recorded: sensitizes”.
For `Cc1c(C)c2c(c(C)c1OC(=O)C(=O)O)CCC(C)(CCCC(C)CCCC(C)CCCC(C)C)O2` (stereo not shown) [Compound 10], in the series on B16-F1/nude mice, the “cytotoxicity in mice inoculated with B16-F1 melanoma cells” value is given as “non-selective cytotoxicity”.
As to `Cc1c(C)c2c(c(C)c1OC(=O)CC(=O)O)CCC(C)(CCCC(C)CCCC(C)CCCC(C)C)O2` (stereo not shown) [Compound 11], in the series with B16-F1/nude mice, the “cytotoxicity in mice inoculated with B16-F1 melanoma cells” value is “non-selective cytotoxicity”.
In the case of `COc1c(C)c(C)c2c(c1C)CCC(C)(CCCC(C)CCCC(C)CCCC(C)C)O2` (stereo not shown) [Compound 18], the “pro-apoptotic activity” value in the series with Jurkat was “inactive”.
Turning to `CCC(=O)Oc1c(C)c(C)c2c(c1C)CCC(C)(CCCC(C)CCCC(C)CCCC(C)C)O2` (stereo not shown) [Compound 19], the “pro-apoptotic activity” value in the series on A549 was “inactive”.
As for `Cc1c(C)c2c(c(C)c1OC(=O)CCCCCC(=O)O)CCC(C)(CCCC(C)CCCC(C)CCCC(C)C)O2` (stereo not shown) [Compound 24], the “pro-apoptotic activity” value in the series with C1271 was “no activity at all”.
For the molecule `CCOC(=O)CCC(=O)Oc1c(C)c(C)c2c(c1C)CCC(C)(CCCC(C)CCCC(C)CCCC(C)C)O2` (stereo not shown) [Compound 25], the “pro-apoptotic activity” value in the series with C1271 is recorded as “without pro-apoptotic activity”.
Consider `CC(C=CC1=C(C)CCCC1(C)C)=CC=CC(C)=CC(=O)Oc1c(C)c(C)c2c(c1C)CCC(C)(CCCC(C)CCCC(C)CCCC(C)C)O2` (stereo not shown) [Compound 28], for which the “agonism at retinoic acid receptors” value in series [4] is given as “acted as agonists for retinoic acid receptors (RARs)”. Besides, the IC50 in the series with NB4, HT93 was 0.1 to 1 µM.
For the molecule `CC(C=CC1=C(C)CCCC1(C)C)=CC=CC(C)=CC(=O)Oc1c(C)c(C)c2c(c1C)CCC(C)(CCCC(C)CCCC(C)CCCC(C)C)O2` (stereo not shown) [Compound 29], the “agonism at retinoic acid receptors” value in series [4] is “acted as agonists for retinoic acid receptors (RARs)”.
Turning to `O=C(CC(=O)C(F)(F)F)c1cccs1` [TTFA, 4,4,4-trifluoro-1-(2-thienyl)-1,3-butanedione], in [1], the “inhibition of MTT reduction after MitoQ pre-incubation” value is listed as “significantly overcome by pre-incubation of the cells with MitoQ” and the “enzymatic reduction of MTT” value is on record as “significantly inhibited the enzymatic reduction of MTT”. The toxicity to cells result in the series on all cells is “toxic to all cells”.
Consider “LTVSPWY-α-TOS: adduct of α-TOS linked to the heptapeptide LTVSPWY (SEQ ID NO 1) (also: α-tocopheryl succinate adduct, attachment site not given here)”, for which the tumour volume in series [5] (day 15, 5 μmol per dose per mouse i.p., representative tumour, volume −40 mm^3 at onset) is given as 34.8 mm^3. In addition, the “relative reduction in size of treated tumors compared to the untreated control” value in series [5] (mouse, in vivo) turned out to be 90%.

B1: TRAIL: human recombinant tumor necrosis factor-related apoptosis—inducing ligand (protein, UniProt P50591 1-281, looked up)
Tumor necrosis factor ligand …: MAMMEVQGGPSLGQTCVLIVIFTVLLQSLCVAVTYVYFTNELKQMQDKYSKSGIACFLKEDDSYWDPNDEESMNSPCWQVKWQLRQLVRKMILRTSEETISTVQEKQQNISPLVRERGPQRVAAHITGTRGRSNTLSSPNSKNEKALGRKINSWESSRSGHSFLSNLHLRNGELVIHEKGFYYIYSQTYFRFQEEIKENTKNDKQMVQYIYKYTSYPDPILLMKSARNSCWSKDAEYGLYSIYQGGIFELKENDRIFVSVTNEHLIDMDHEASFFGAFLVG
In the case of B1, in series [3], the “cellular ATP levels” value is reported as “more potent inhibitors than α-TOS”. For the same molecule, in the series on MDA-MB-453 cells, the apoptosis result was “much more resistant to apoptosis” and the “apoptosis after Akt1 knock-down” value is recorded as “sensitizes”.
